Test results taken from patent US20260151383A1, “HETEROCYCLIC COMPOUNDS AND USES THEREOF” (KayoThera Inc., priority 2022, published 2026).

Assays:
Format in all cases: biochemical
Details in all cases: recombinant enzyme, 20° C., activity level classes
hALDH1a3 = target: T1, hALDH1a3 (Homo sapiens, UniProt P47895); experiment: Aldh1a3 enzyme inhibition assay (resorufin fluorescence), human enzyme
T1 construct: made in house; host or cells: E. coli BL21-DE3
T1 sequence (P47895 1-512): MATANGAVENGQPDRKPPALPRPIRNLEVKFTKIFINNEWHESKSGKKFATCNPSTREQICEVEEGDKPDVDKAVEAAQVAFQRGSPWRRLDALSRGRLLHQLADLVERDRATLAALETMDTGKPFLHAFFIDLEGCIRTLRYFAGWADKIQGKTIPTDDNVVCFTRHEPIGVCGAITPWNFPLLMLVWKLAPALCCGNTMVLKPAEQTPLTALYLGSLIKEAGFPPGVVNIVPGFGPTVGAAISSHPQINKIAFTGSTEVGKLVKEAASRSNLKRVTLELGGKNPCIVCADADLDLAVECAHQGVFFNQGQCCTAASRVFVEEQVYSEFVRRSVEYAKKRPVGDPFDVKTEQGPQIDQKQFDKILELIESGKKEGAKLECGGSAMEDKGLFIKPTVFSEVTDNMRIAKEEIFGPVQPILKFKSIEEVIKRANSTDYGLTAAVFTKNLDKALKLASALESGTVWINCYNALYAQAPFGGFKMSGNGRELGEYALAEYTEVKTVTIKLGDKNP

hALDH1a2 = target: T2, hALDH1a2 (Homo sapiens, UniProt O94788); experiment: Aldh1a2 enzyme inhibition assay (resorufin fluorescence), human enzyme
T2 construct: made in house; host or cells: E. coli BL21-DE3
T2 sequence (O94788 1-518): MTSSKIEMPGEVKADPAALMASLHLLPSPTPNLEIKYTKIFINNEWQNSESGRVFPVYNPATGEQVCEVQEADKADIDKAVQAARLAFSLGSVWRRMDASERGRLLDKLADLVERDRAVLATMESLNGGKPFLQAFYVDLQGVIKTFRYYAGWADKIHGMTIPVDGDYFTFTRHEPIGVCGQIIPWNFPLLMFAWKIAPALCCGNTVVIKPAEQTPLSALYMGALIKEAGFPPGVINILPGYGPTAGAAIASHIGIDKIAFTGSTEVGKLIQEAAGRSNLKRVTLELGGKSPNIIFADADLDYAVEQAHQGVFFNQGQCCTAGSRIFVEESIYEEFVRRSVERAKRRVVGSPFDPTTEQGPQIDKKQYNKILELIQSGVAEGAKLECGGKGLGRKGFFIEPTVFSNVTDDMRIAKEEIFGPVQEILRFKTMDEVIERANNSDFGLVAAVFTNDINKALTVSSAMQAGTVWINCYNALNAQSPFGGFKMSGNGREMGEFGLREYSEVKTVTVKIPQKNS
Source text: (§1) Recombinant enzyme and inhibitor added immediately before assay. Reaction rate measured by resorufln fluorescence.

mALDH1a3 = target: T3, mALDH1a3 (Mus musculus, UniProt Q9JHW9); experiment: Aldh1a3 enzyme inhibition assay (resorufin fluorescence), mouse enzyme
T3 construct: made in house; host or cells: E. coli BL21-DE3
T3 sequence (Q9JHW9 1-512): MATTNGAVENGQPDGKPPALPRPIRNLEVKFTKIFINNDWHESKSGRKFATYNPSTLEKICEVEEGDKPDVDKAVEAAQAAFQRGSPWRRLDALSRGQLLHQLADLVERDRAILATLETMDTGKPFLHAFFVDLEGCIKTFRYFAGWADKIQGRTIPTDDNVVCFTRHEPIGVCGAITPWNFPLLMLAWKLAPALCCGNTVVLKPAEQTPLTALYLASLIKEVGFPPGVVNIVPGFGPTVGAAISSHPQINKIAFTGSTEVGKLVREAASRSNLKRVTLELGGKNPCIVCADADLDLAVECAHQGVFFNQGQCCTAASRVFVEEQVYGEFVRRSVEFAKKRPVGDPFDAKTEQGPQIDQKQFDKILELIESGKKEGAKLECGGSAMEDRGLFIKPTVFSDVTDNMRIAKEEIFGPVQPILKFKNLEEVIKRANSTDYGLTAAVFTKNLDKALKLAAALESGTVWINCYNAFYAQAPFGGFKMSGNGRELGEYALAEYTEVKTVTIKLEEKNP
Source text: Recombinant enzyme and inhibitor added immediately before assay. Reaction rate measured by resorufin fluorescence.

mALDH1a2 = target: T4, mALDH1a2 (Mus musculus, UniProt Q62148); experiment: Aldh1a2 enzyme inhibition assay (resorufin fluorescence), mouse enzyme
T4 construct: made in house; host or cells: E. coli BL21-DE3
T4 sequence (Q62148 1-518): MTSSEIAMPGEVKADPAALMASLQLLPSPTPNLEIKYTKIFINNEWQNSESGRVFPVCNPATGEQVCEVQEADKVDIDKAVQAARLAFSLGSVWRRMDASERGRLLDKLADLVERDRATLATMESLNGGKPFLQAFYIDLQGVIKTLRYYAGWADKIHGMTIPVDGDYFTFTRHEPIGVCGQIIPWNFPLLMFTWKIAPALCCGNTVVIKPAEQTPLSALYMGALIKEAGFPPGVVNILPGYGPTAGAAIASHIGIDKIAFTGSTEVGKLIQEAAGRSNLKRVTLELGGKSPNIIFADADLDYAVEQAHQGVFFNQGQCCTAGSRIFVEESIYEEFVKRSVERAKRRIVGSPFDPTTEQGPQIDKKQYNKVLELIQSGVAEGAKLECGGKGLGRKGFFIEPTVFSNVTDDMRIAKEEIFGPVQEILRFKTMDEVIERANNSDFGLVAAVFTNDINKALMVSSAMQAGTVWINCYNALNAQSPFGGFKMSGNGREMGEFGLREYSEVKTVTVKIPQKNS
Source text: as §1

Row | IC50 (hALDH1a3) [nM] | IC50 (hALDH1a2) [nM] | IC50 (mALDH1a3) [nM] | IC50 (mALDH1a2) [nM] | mAldh1a3 IC50 (mALDH1a3) | hAldh1a3 IC50 (hALDH1a3) | hAldh1a2 IC50 (hALDH1a2) | mAldh1a2 IC50 (mALDH1a2) | SMILES
1 | – | 1000 to 5000 | – | 1000 to 5000 | No activity | No activity | – | – | Cc1cccc(-c2cnccc2C(=O)Nc2cc(C)c3c(c2)CCC(=O)N3)c1 [Compound 11, N-(8-methyl-2-oxo-1,2,3,4-tetrahydroquinolin-6-yl)-3-(m-tolyl)isonicotinamide]
2 | – | 1000 to 5000 | – | > 5000 | No activity | No activity | – | – | Cc1cc(NC(=O)c2ccncc2-c2cccc(C#N)c2)cc2c1NC(=O)CC2 [Compound 12]
3 | – | > 5000 | – | > 5000 | No activity | No activity | – | – | Cc1ccc(-c2cnccc2C(=O)Nc2cc(C)c3c(c2)CCC(=O)N3)cc1 [Compound 13]
4 | – | > 5000 | – | > 5000 | No activity | No activity | – | – | Cc1cc(NC(=O)c2ccncc2-c2ccc(C#N)cc2)cc2c1NC(=O)CC2 [Compound 14]
5 | – | > 5000 | – | > 5000 | No activity | No activity | – | – | Cc1ccccc1-c1cnccc1C(=O)Nc1cc(C)c2c(c1)CCC(=O)N2 [Compound 15, N-(8-methyl-2-oxo-1,2,3,4-tetrahydroquinolin-6-yl)-3-(o-tolyl)isonicotinamide]
6 | – | > 5000 | – | > 5000 | No activity | No activity | – | – | Cc1cc(NC(=O)c2ccncc2-c2ccccc2C#N)cc2c1NC(=O)CC2 [Compound 16]
7 | – | 1000 to 5000 | – | 1000 to 5000 | No activity | No activity | – | – | Cc1cc(NC(=O)c2ccncc2-c2cccc(O)c2)cc2c1NC(=O)CC2 [Compound 18]
8 | – | 1000 to 5000 | – | 1000 to 5000 | No activity | No activity | – | – | Cc1cc(NC(=O)c2ccncc2-c2ccc(O)cc2)cc2c1NC(=O)CC2 [Compound 19]
9 | 1000 to 5000 | < 100 | 1000 to 5000 | 100 to 250 | – | – | – | – | O=C1CCc2cc(NC(=O)c3ccncc3-c3ccccc3)cc(Cl)c2N1 [Compound 20]
10 | > 5000 | 1000 to 5000 | – | 1000 to 5000 | No activity | – | – | – | O=C1CCc2cc(NC(=O)c3ccncc3-c3ccccc3)ccc2N1 [Compound 21]
11 | > 5000 | 1000 to 5000 | > 5000 | 1000 to 5000 | – | – | – | – | Cc1cc(NC(=O)c2ccccc2-c2cccc(F)c2)cc2c1NC(=O)CC2 [Compound 23]
12 | 1000 to 5000 | 100 to 250 | > 5000 | 250 to 1000 | – | – | – | – | O=C1CCc2cc(NC(=O)c3ccccc3-c3cccc(F)c3)cc(Cl)c2N1 [Compound 24]
13 | – | 250 to 1000 | – | 1000 to 5000 | – | – | – | – | Cc1c(F)c(NC(=O)c2scnc2CC(F)(F)F)cc2c1NC(=O)CC2 [Compound 78]
14 | – | 250 to 1000 | – | 250 to 1000 | – | – | – | – | CCc1ncsc1C(=O)Nc1cc2c(c(C)c1F)NC(=O)CC2 [Compound 79]
15 | – | 100 to 250 | – | 250 to 1000 | – | – | – | – | Cc1c(Cl)c(NC(=O)c2scnc2CC(F)(F)F)cc2c1NC(=O)CC2 [Compound 80]
16 | – | 250 to 1000 | – | 250 to 1000 | – | – | – | – | CCc1ncsc1C(=O)Nc1cc2c(c(C)c1Cl)NC(=O)CC2 [Compound 81]
17 | – | < 100 | – | < 100 | – | – | – | – | CCc1ncsc1C(=O)Nc1cc(Cl)c2c(c1)CCC(=O)N2 [Compound 83]

The next lines start with the compound.

Row | SMILES | IC50 (hALDH1a3) [nM] | IC50 (hALDH1a2) [nM] | IC50 (mALDH1a3) [nM] | IC50 (mALDH1a2) [nM] | mAldh1a3 IC50 (mALDH1a3) | hAldh1a3 IC50 (hALDH1a3) | hAldh1a2 IC50 (hALDH1a2) | mAldh1a2 IC50 (mALDH1a2)
18 | Cc1cc(NC(=O)c2ccncc2-c2ccccc2)cc2c1NC(=O)CC2 [Compound 1, N-(8-methyl-2-oxo-1,2,3,4-tetrahydroquinolin-6-yl)-3-phenylisonicotinamide] | 1000 to 5000 | 100 to 250 | 1000 to 5000 | 100 to 250 | – | – | – | –
19 | Cc1cc(NC(=O)c2ccncc2-c2ccccc2F)cc2c1NC(=O)CC2 [Compound 2, 3-(2-fluorophenyl)-N-(8-methyl-2-oxo-1,2,3,4-tetrahydroquinolin-6-yl)isonicotinamide] | 1000 to 5000 | 100 to 250 | – | 250 to 1000 | No activity | – | – | –
20 | Cc1cc(NC(=O)c2ccncc2-c2cccc(F)c2)cc2c1NC(=O)CC2 [Compound 3, 3-(3-fluorophenyl)-N-(8-methyl-2-oxo-1,2,3,4-tetrahydroquinolin-6-yl)isonicotinamide] | 1000 to 5000 | 250 to 1000 | – | 250 to 1000 | No activity | – | – | –
21 | Cc1cc(NC(=O)c2scnc2-c2cccc(F)c2)cc2c1NC(=O)CC2 [Compound 4, 4-(3-fluorophenyl)-N-(8-methyl-2-oxo-1,2,3,4-tetrahydroquinolin-6-yl)thiazole-5-carboxamide] | 100 to 250 | 250 to 1000 | 250 to 1000 | 250 to 1000 | – | – | – | –
22 | O=C1CCc2cc(NC(=O)c3scnc3-c3cccc(F)c3)c(F)cc2N1 [Compound 5, N-(7-fluoro-2-oxo-1,2,3,4-tetrahydroquinolin-6-yl)-4-(3-fluorophenyl)thiazole-5-carboxamide] | < 100 | 1000 to 5000 | 100 to 250 | 1000 to 5000 | – | – | – | –
23 | O=C1CCc2cc(NC(=O)c3scnc3-c3cccc(F)c3)ccc2N1 [Compound 6, 4-(3-fluorophenyl)-N-(2-oxo-1,2,3,4-tetrahydroquinolin-6-yl)thiazole-5-carboxamide] | < 100 | 1000 to 5000 | 100 to 250 | 1000 to 5000 | – | – | – | –
24 | Cc1cc(NC(=O)c2ccncc2CC(F)(F)F)cc2c1NC(=O)CS2 [Compound 7] | 100 to 250 | 250 to 1000 | 100 to 250 | 250 to 1000 | – | – | – | –
25 | Cc1cc(OCCNC(=O)c2cccc(F)c2)cc2c1NC(=O)CC2 [Compound 8, 3-fluoro-N-(2-((8-methyl-2-oxo-1,2,3,4-tetrahydroquinolin-6-yl)oxy)ethyl)benzamide] | – | – | – | – | No activity | No activity | No activity | No activity
26 | Cc1cc(OCCN(C)C(=O)c2cccc(F)c2)cc2c1NC(=O)CC2 [Compound 9, 3-fluoro-N-methyl-N-(2-((8-methyl-2-oxo-1,2,3,4-tetrahydroquinolin-6-yl)oxy)ethyl)benzamide] | > 5000 | 1000 to 5000 | > 5000 | 1000 to 5000 | – | – | – | –
27 | Cc1cc(OCCN(C)Cc2cccc(F)c2)cc2c1NC(=O)CC2 [Compound 10] | 1000 to 5000 | 1000 to 5000 | 1000 to 5000 | 1000 to 5000 | – | – | – | –
28 | O=C1CCc2cc(NC(=O)c3ccccc3-c3cccc(F)c3)ccc2N1 [Compound 22] | > 5000 | > 5000 | – | > 5000 | No activity | – | – | –
